In US10208071B2, “Use of agonists of formyl peptide receptor 2 for treating ocular inflammatory diseases” (Allergan, Inc., priority 2013, dated 2019):

Target: FPR2 (Homo sapiens (Human), UniProt P25090)
Assay: FLIPR Ca+2 response, HEK-Gα16 cells stably expressing the human FPR2 receptor (Table 4)
Type: cell-based
Settings: for FPR2 (efficacy): efficacy in parentheses
Method: FLIPR: HEK-Gα16 cells stably expressing the human FPR2 receptor was utilized. Cells were plated into 384-well poly-D-lysine coated plates at a density of 18,000 cells per well one day prior to use. The growth media was DMEM medium supplemented with 10% fetal bovine serum (FBS), 1% antibiotic-antimycotic, 50 μg/ml hygromycin, and 400 μg/ml geneticin. On the day of the experiment, the cells were washed twice with Hank's Balanced Salt Solution supplemented with 20 mM HEPES (HBSS/hepes buffer). The cells were then dye loaded with 2 μM Fluo-4 diluted in the HBSS/Hepes buffer and incubated at 37° C. for 40 minutes. Extracellular dye was removed by washing the cell plates four times prior to placing the plates in the FLIPR (Fluorometric Imaging Plate Reader, Molecular Devices). Ligands were diluted in HBSS/Hepes buffer and prepared in 384-well microplates. Data for Ca^+2 responses were obtained in relative fluorescence units.

FPR2, sequence (P25090 whole entry): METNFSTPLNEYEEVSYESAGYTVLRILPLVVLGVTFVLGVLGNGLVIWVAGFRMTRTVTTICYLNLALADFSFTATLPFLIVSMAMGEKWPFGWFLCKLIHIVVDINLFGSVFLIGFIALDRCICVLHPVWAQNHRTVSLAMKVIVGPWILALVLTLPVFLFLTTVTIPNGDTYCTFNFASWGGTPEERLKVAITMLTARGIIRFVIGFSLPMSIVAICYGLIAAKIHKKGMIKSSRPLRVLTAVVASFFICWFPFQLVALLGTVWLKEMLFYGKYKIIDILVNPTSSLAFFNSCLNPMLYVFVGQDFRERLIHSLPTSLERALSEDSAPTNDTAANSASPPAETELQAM

O=C(Nc1ccc(Br)cc1F)N[C@@H](Cc1ccccc1)C(=O)NCCO [Compound 71, (2S)-2-{[(4-bromo-2-fluorophenyl)carbamoyl]amino}-N-(2-hydroxyethyl)-3-phenylpropanamide]
EC50: 15.6 nM
FPR2 (efficacy): nM (0.98)

CCC[C@H](NC(=O)Nc1ccc(Br)cc1)C(=O)NCC(=O)OC [Compound 72, methyl{[(2S)-2-{[(4-bromophenyl)carbamoyl]amino}pentanoyl]amino}acetate]
EC50: 16.4 nM
FPR2 (efficacy): nM (0.86)

CCC[C@H](NC(=O)Nc1ccc(Br)cc1)C(=O)NCC(=O)OC(C)C [Compound 73, propan-2-yl {[(2S)-2-{[(4-bromophenyl)carbamoyl]amino}pentanoyl]amino}acetate]
EC50: 14.5 nM
FPR2 (efficacy): nM (1.0)

CCC[C@H](NC(=O)Nc1ccc(Br)cc1F)C(=O)NCC(=O)O [Compound 74, {[(2S)-2-+{[(4-bromo-2-fluorophenyl)carbamoyl]amino}pentanoyl]amino}acetic acid]
EC50: 4.1 nM
FPR2 (efficacy): nM (0.91)

CC(C)C[C@H](NC(=O)Nc1ccc(Br)cc1)C(=O)NCCO [Compound 75, (2S)-2-{[(4-bromophenyl)carbamoyl]amino}-N-(2-hydroxyethyl)-4-methylpentanamide]
EC50: 13.5 nM
FPR2 (efficacy): nM (0.76)

CC1(CCc2ccco2)NC(=O)N(NC(=O)Nc2ccc(Br)cc2)C1=O (stereo not drawn) [Compound 76, 1-(4-bromophenyl)-3-{4-[2-(furan-2-yl)ethyl]-4-methyl-2,5-dioxoimidazolidin-1-yl}urea]
EC50: 5.2 nM
FPR2 (efficacy): nM (0.99)

CC(C)C[C@H](NC(=O)Nc1ccc(Br)cc1)C(=O)NCC(N)=O [Compound 77, (2S)-N-(2-amino-2-oxoethyl)-2-{[(4-bromophenyl)carbamoyl]amino}-4-methylpentanamide]
EC50: 1.1 nM
FPR2 (efficacy): nM (1.0)

CC(=O)CNC(=O)[C@H](CC(C)C)NC(=O)Nc1ccc(Br)cc1 [Compound 78, (2S)-2-{[(4-bromophenyl)carbamoyl]amino}-4-methyl-N-(2-oxopropyl)pentanamide]
FPR2 (efficacy): nM (0.82)

CCC[C@H](NC(=O)Nc1ccc(Br)cc1)C(=O)NCC(N)=O [Compound 79, (2S)-N-(2-amino-2-oxoethyl)-2-{[(4-bromophenyl)carbamoyl]amino} pentanamide]
FPR2 (efficacy): nM (0.97)

CC1(CCc2ccccc2F)NC(=O)N(NC(=O)Nc2ccc(Br)cc2)C1=O (stereo not drawn) [Compound 80, 1-(4-bromophenyl)-3-{4-[2-(2-fluorophenyl)ethyl]-4-methyl-2,5-dioxoimidazolidin-1-yl}urea]
EC50: 14.3 nM
FPR2 (efficacy): nM (99)

CCC[C@H](NC(=O)Nc1ccc(Br)cc1F)C(=O)NCC(N)=O [Compound 81, (2S)-N-(2-amino-2-oxoethyl)-2-{[(4-bromo-2-fluorophenyl)carbamoyl]amino} pentanamide]
FPR2 (efficacy): nM (0.96)

CC1(CCc2ccc(F)cc2)NC(=O)N(NC(=O)Nc2ccc(Br)cc2)C1=O (stereo not drawn) [Compound 82, 1-(4-bromophenyl)-3-{4-[2-(4-fluorophenyl)ethyl]-4-methyl-2,5-dioxoimidazolidin-1-yl}urea]
EC50: 16.3 nM
FPR2 (efficacy): nM (1.0)

CC1(CCc2cccc(F)c2)NC(=O)N(NC(=O)Nc2ccc(Br)cc2)C1=O (stereo not drawn) [Compound 83, 1-(4-bromophenyl)-3-{4-[2-(3-fluorophenyl)ethyl]-4-methyl-2,5-dioxoimidazolidin-1-yl}urea]
FPR2 (efficacy): nM (1.0)

CC(C)C[C@H](NC(=O)Nc1ccc(Br)cc1F)C(=O)NCC(N)=O [Compound 84, (2S)-N-(2-amino-2-oxoethyl)-2-{[(4-bromo-2-fluorophenyl)carbamoyl]amino}-4-methylpentanamide]
EC50: 4.5 nM
FPR2 (efficacy): nM (0.95)

CC(=O)CNC(=O)[C@H](CC(C)C)NC(=O)Nc1ccc(Br)cc1F [Compound 85, (2S)-2-{[(4-bromo-2-fluorophenyl)carbamoyl]amino}-4-methyl-N-(2-oxopropyl)pentanamide]
FPR2 (efficacy): nM (0.99)

CC(C)C[C@H](NC(=O)Nc1ccc(Br)cc1F)C(=O)N[C@@H](C)C(=O)O [Compound 87, (2S)-2-{[(2S)-2-{[(4-bromo-2-fluorophenyl)carbamoyl]amino}-4-methylpentanoyl]amino} propanoic acid]
EC50: 12.1 nM
FPR2 (efficacy): nM (0.95)

CC1(CCc2cccs2)NC(=O)N(NC(=O)Nc2ccc(Br)cc2)C1=O (stereo not drawn) [Compound 88, 1-(4-bromophenyl)-3-{4-methyl-2,5-dioxo-4-[2-(thiophen-2-yl)ethyl]imidazolidin-1-yl}urea]
FPR2 (efficacy): nM (0.94)

CC1(CCc2ccc(O)cc2)NC(=O)N(NC(=O)Nc2ccc(Br)cc2F)C1=O (stereo not drawn) [Compound 89, 1-(4-bromo-2-fluorophenyl)-3-{4-[2-(4-hydroxyphenyl)ethyl]-4-methyl-2,5-dioxoimidazolidin-1-yl}urea]
FPR2 (efficacy): nM (0.85)

CC(C)C[C@H](NC(=O)Nc1ccc(Br)cc1)C(=O)N[C@@H](C)C(=O)O [Compound 90, (2S)-2-{[(2S)-2-{[(4-bromophenyl)carbamoyl]amino}-4-methylpentanoyl]amino} propanoic acid]
EC50: 11.6 nM
FPR2 (efficacy): nM (1.0)

CC(C)C[C@H](NC(=O)Nc1ccc(Br)cc1)C(=O)N[C@H](C(=O)O)C(C)C [Compound 91, (2S)-2-{[(2S)-2-{[(4-bromophenyl)carbamoyl]amino}-4-methylpentanoyl]amino}-3-methylbutanoic acid]
EC50: 1.7 nM
FPR2 (efficacy): nM (0.97)

CC(C)C[C@H](NC(=O)Nc1ccc(Br)cc1)C(=O)N[C@H](C(N)=O)C(C)C [Compound 92, (2S)-N-[(2S)-1-amino-3-methyl-1-oxobutan-2-yl]-2-{[(4-bromophenyl)carbamoyl]amino}-4-methylpentanamide]
EC50: 5.8 nM
FPR2 (efficacy): nM (1.0)

CC(C)C[C@H](NC(=O)Nc1ccc(Br)cc1)C(=O)NCC(C)(C)O [Compound 93, (2S)-2-{[(4-bromophenyl)carbamoyl]amino}-N-(2-hydroxy-2-methylpropyl)-4-methylpentanamide]
EC50: 2.5 nM
FPR2 (efficacy): nM (0.93)

CC(C)C[C@H](NC(=O)Nc1ccc(Br)cc1)C(=O)NC(CO)CO [Compound 94, (2S)-2-{[(4-bromophenyl)carbamoyl]amino}-N-(1,3-dihydroxypropan-2-yl)-4-methylpentanamide]
FPR2 (efficacy): nM (0.96)

CC(C)C[C@H](NC(=O)Nc1ccc(Br)cc1)C(=O)NCC(O)CO (stereo partly drawn) [Compound 95, (2S)-2-{[(4-bromophenyl)carbamoyl]amino}-N-(2,3-dihydroxypropyl)-4-methylpentanamide]
FPR2 (efficacy): nM (0.98)

CC(C)C[C@H](NC(=O)Nc1ccc(Br)cc1)C(=O)N[C@H](C)CO [Compound 96, (2S)-2-{[(4-bromophenyl)carbamoyl]amino}-N-[(2R)-1-hydroxypropan-2-yl]-4-methylpentanamide]
FPR2 (efficacy): nM (1.0)

Cc1ccc(CCC2(C)NC(=O)N(NC(=O)Nc3ccc(Br)cc3)C2=O)o1 (stereo not drawn) [Compound 97, 1-(4-bromophenyl)-3-{4-methyl-4-[2-(5-methylfuran-2-yl)ethyl]-2,5-dioxoimidazolidin-1-yl}urea]
FPR2 (efficacy): nM (0.95)

CC1(CCc2ccc(O)c(F)c2)NC(=O)N(NC(=O)Nc2ccc(Br)cc2F)C1=O (stereo not drawn) [Compound 98, 1-(4-bromo-2-fluorophenyl)-3-{4-[2-(3-fluoro-4-hydroxyphenyl)ethyl]-4-methyl-2,5-dioxoimidazolidin-1-yl}urea]
FPR2 (efficacy): nM (0.91)

CC1(CCc2ccc(O)c(F)c2)NC(=O)N(NC(=O)Nc2ccc(Br)cc2)C1=O (stereo not drawn) [Compound 99, 1-(4-bromophenyl)-3-{4-[2-(3-fluoro-4-hydroxyphenyl)ethyl]-4-methyl-2,5-dioxoimidazolidin-1-yl}urea]
EC50: 8 nM
FPR2 (efficacy): nM (1.0)

CCC[C@H](NC(=O)[C@H](CC(C)C)NC(=O)Nc1ccc(Br)cc1)C(=O)OC(C)(C)C [Compound 100, tert-butyl (2S)-2-{[(2S)-2-{[(4-bromophenyl)carbamoyl]amino}-4-methylpentanoyl]amino} pentanoate]
FPR2 (efficacy): nM (1.0)

CCC[C@H](NC(=O)[C@H](CC(C)C)NC(=O)Nc1ccc(Br)cc1)C(=O)O [Compound 101, (2S)-2-{[(2S)-2-{[(4-bromophenyl)carbamoyl]amino}-4-methylpentanoyl]amino} pentanoic acid]
FPR2 (efficacy): nM (0.95)

CCC[C@H](NC(=O)[C@H](CC(C)C)NC(=O)Nc1ccc(Br)cc1)C(N)=O [Compound 102, (2S)-N-[(2S)-1-amino-1-oxopentan-2-yl]-2-{[(4-bromophenyl)carbamoyl]amino}-4-methylpentanamide]
EC50: 7.3 nM
FPR2 (efficacy): nM (0.99)

CC(C)C[C@H](NC(=O)Nc1ccc(Br)cc1)C(=O)N[C@H](C(=O)O)c1ccccc1 [Compound 103, (2S)-{[(2S)-2-{[(4-bromophenyl)carbamoyl]amino}-4-methylpentanoyl]amino} (phenyl)ethanoic acid]
FPR2 (efficacy): nM (1.0)

CC(C)C[C@H](NC(=O)Nc1ccc(Br)cc1)C(=O)NCc1nnn[nH]1 [Compound 104, (2S)-2-{[(4-bromophenyl)carbamoyl]amino}-4-methyl-N-(1H-tetrazol-5-ylmethyl)pentanamide]
FPR2 (efficacy): nM (0.81)

CCOP(=O)(O)CNC(=O)[C@H](CC(C)C)NC(=O)Nc1ccc(Br)cc1 [Compound 105, ethyl hydrogen ({[(2S)-2-{[(4-bromophenyl)carbamoyl]amino}-4-methylpentanoyl]amino}methyl)phosphonate]
FPR2 (efficacy): nM (0.88)
